Key:
AHR = AHR target gene expression (microarray, qRT-PCR) in glioblastoma cells treated with IL4I1 metabolites; assay type: cell-based, human; conditions: U-87MG cells; for induction of the AHR target gene TIPARP (mRNA): 24 h, KynA 50 μM; for modulation of AHR target genes / AHR activation signature genes: 40 μM for 24 h (microarray), TIPARP mRNA 24 h
Experimental: Array datasets—The affymetrix microarray chips “human gene 2.0 ST” were analyzed using the oligo package and annotated using NetAffx (14). Raw CEL files were RMA normalized and summarized. Differential gene expression was performed using the limma pipeline for microarrays (15).
For treatment of adherent cells with established and hypothetical AHR ligands, 4×10^5 cells per well were seeded in six well plates and incubated for 24 h prior to treatment. Non-adherent cells were seeded in 24 well plates at 5×10^5 cells in 1 mL and treated immediately. For verification of the generated AHR signature, cells were treated with the established AHR agonist Kyn (50 μM, SigmaAldrich, K8625) for 24 h. […] When using the AHR antagonist SR1 (1 μM, Merck Millipore, 182706), cells were treated for 24 h alone or in combination with AHR ligands.
Total RNA was harvested from cultured cells using the RNeasy Mini Kit (Qiagen, 80204) followed by cDNA synthesis using the High Capacity cDNA reverse transcriptase kit (Applied Biosystems, 4368813). A StepOne Plus real-time PCR system (Applied Biosystems) was used to perform real-time PCR of cDNA samples using SYBR Select Master mix (Thermo Scientific, 4309155). Data was processed and analysed using the StepOne Software v 2.3. Relative quantification of target genes was done against RNA18S as reference gene using the […] method.

U-87MG cells = assay: Metabolites in supernatants of U-87MG cells treated with I3P; assay type: cell-based, human; conditions: increasing concentrations of I3P, 24 h
Experimental: For treatment of adherent cells with established and hypothetical AHR ligands, 4×10^5 cells per well were seeded in six well plates and incubated for 24 h prior to treatment. Non-adherent cells were seeded in 24 well plates at 5×10^5 cells in 1 mL and treated immediately. For verification of the generated AHR signature, cells were treated with the established AHR agonist Kyn (50 μM, SigmaAldrich, K8625) for 24 h. In order to investigate the potential of direct and downstream IL4I1 metabolites to activate the AHR, cells were treated with […] When using the AHR antagonist SR1 (1 μM, Merck Millipore, 182706), cells were treated for 24 h alone or in combination with AHR ligands. […] Consumption of phenylalanine, tyrosine and Trp by IL4I1-expressing and non-expressing U-87MG and U-251MG cells was assessed by quantification of the amino acids in the cell culture supernatants after 120 h incubation. […] The derivatization product was separated at 42° C. on an Acquity BEH C18 column (Waters) using an Acquity H-class UPLC system (Waters) coupled to an Acquity fluorescence detector (FLR) (Waters). Samples were analyzed on the UPLC as described before by Yang et. al., 2015^21. […] Trp was detected by fluorescence (Acquity FLR detector, Waters, excitation: 254 nm, emission: 401 nm). Standards were used for quantification (Sigma). […] For targeted quantification of the metabolites, MRM mode was used. […]

[1] = Conversion of I3P to kynurenic acid in PBS with or without H2O2 (HPLC); assay type: physicochemical; conditions: 3.33 mg/mL I3P in PBS, 24 h, with or without 1 mM H2O2
Experimental: Black, lowest peak: 3.33 mg/mL I3P in phosphate buffered saline (PBS) incubated for 24 h. Grey peak: 3.33 mg/mL I3P incubated in PBS in the presence of 1 mM H2O2 for 24 h (n=2). c-e, TIPARP mRNA expression in U-87MG cells treated with IAA (c), ILA (d), I3CA (e) or vehicle for 24 h (n=3). f, TIPARP mRNA expression in shCtrl and shAHR U-87MG cells treated with 50 μM KynA or vehicle for 24 h (n=3). g, Representative images of GFP-Ahr expressing tao BpRc1c cells treated with either vehicle or 50 μM KynA for 1 h. n values represent independent experiments. Data are presented as mean±S.E.M and were analyzed by two-tailed paired student's t-test (a, b, h) or repeated measures ANOVA with Dunnett's multiple comparisons test (c, e-g). *P<0.05, **P<0.01, ***P<0.001, ****P<0.0001. n.s., not significant.

GFP-tagged Ahr = molecular target: T1, GFP-tagged Ahr (Mus musculus, UniProt P30561); assay: AHR nuclear translocation assay in GFP-Ahr expressing tao BpRc1c cells; assay type: cell-based, murine; conditions: 25 μM, 4 h
T1 construct: expressed in transfected cells; host or cells: murine hepatoma tao BpRc1 cells (deficient of endogenous Ahr), retroviral transfection, tet-off system
T1 sequence (P30561 10-848): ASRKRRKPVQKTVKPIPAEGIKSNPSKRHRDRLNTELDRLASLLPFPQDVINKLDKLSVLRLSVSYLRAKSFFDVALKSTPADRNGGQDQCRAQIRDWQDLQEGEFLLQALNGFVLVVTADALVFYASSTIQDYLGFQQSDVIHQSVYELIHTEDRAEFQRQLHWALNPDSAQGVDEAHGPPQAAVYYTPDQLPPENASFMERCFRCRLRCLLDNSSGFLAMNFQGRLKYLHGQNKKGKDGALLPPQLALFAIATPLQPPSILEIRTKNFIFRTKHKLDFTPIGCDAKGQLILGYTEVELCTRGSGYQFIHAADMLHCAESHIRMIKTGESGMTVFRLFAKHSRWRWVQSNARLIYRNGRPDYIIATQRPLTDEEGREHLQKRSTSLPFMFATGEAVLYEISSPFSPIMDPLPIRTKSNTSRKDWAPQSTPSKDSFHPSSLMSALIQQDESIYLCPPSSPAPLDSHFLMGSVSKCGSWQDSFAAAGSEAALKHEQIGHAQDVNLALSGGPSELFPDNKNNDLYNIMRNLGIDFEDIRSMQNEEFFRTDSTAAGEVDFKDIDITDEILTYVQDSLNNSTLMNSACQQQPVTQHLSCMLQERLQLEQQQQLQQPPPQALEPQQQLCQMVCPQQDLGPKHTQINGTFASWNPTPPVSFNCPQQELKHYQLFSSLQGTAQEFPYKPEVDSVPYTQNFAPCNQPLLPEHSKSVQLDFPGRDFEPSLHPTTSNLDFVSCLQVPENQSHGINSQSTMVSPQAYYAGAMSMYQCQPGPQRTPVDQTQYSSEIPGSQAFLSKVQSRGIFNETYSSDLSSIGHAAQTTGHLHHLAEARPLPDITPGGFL
Experimental: Stably transfected tao BpRc1c cells, expressing a GFP-tagged Ahr under tetracycline control, were used to visualize nuclear translocation of Ahr.
For induction of GFP-Ahr expression in the transgenic tao BpRc1c cells, cells were taken off tetracycline 24 h before translocation assays. Assays were performed in black clear bottom 96-well plates (BD, #353219) with 7500 cells/well in 150 μl/well. Metabolites were added in 50 μL/well induction medium. Cells were exposed for 4h to 25 μM PP, HPP, and I3P respectively. Medium was discarded and cells fixed with pre-warmed 3.7% formaldehyde in PBS (10 min at RT). After fixation cells were washed with detergent buffer (DB, 0.01% Tween20 in PBS, Sigma Aldrich), followed by permeabilization with 0.1% Triton X-100 in PBS (Sigma Aldrich) for 15 min at RT. Cells were washed twice with DB and incubated with 0.4 ng/ml Hoechst 33342 (Sigma Aldrich) for 30 min at RT protected from light. After washing with DB and PBS cells were stored in PBS at 4° C. until translocation analysis. Translocation by KynA was monitored by live cell imaging after 3 h of exposure including the appropriate negative medium control. Translocation of Ahr by the different metabolites was monitored on a BD Pathway Imager 855.

## O=Cc1c[nH]c2ccccc12 [I3CA, indole-3-carboxaldehyde]
AHR
  induction of the AHR target gene TIPARP (mRNA): induced TIPARP transcripts

## O=C(O)C(O)Cc1c[nH]c2ccccc12 (stereo not shown) [I3L, indole-3-lactic acid]
AHR
  induction of the AHR target gene TIPARP (mRNA): did not observe relevant induction

## O=C(O)C(=O)Cc1c[nH]c2ccccc12 [I3P, indole-3-pyruvic acid]
U-87MG cells
  IAA, I3CA and kynurenic acid in the cell supernatants after treatment: dose-dependent increase
[1]
  formation of kynurenic acid from I3P: formed spontaneously from I3P, which was enhanced in the presence of H2O2
GFP-tagged Ahr
  nuclear translocation of the AHR: observed only in response to I3P
AHR
  modulation of AHR target genes / AHR activation signature genes: significant regulation

## O=C(O)C(=O)Cc1ccccc1 [PP, phenylpyruvic acid]
AHR
  modulation of AHR target genes / AHR activation signature genes: did not elicit relevant modulation

Reference: patent US20220170096A1, “INTERLEUKIN-4-INDUCED GENE 1 (IL4I1) AS A BIOMARKER AND USES THEREOF” (DEUTSCHES KREBSFORSCHUNGSZENTRUM STIFTUNG DES OEFFENTLICHEN …, priority 2019, published 2022)
